Experimental findings from ChEMBL document CHEMBL1138703, “Allosteric potentiators of the metabotropic glutamate receptor 2 (mGlu2). Part 2: 4-thiopyridyl acetophenones as non-tetrazole containing mGlu2 receptor potentiators” (Bioorg Med Chem Lett, 2004) are described below.

Data set [1] deals with T1, Metabotropic glutamate receptor 2 (Homo sapiens, UniProt Q14416). As to the kind of experiment: Binding affinity towards human metabotropic glutamate receptor 2 determined by [35S]GTP gamma S binding assay. The format is functional. For orientation: GTPγS resists hydrolysis and so accumulates on activated G proteins.
Target sequence in this assay (Q14416 whole entry): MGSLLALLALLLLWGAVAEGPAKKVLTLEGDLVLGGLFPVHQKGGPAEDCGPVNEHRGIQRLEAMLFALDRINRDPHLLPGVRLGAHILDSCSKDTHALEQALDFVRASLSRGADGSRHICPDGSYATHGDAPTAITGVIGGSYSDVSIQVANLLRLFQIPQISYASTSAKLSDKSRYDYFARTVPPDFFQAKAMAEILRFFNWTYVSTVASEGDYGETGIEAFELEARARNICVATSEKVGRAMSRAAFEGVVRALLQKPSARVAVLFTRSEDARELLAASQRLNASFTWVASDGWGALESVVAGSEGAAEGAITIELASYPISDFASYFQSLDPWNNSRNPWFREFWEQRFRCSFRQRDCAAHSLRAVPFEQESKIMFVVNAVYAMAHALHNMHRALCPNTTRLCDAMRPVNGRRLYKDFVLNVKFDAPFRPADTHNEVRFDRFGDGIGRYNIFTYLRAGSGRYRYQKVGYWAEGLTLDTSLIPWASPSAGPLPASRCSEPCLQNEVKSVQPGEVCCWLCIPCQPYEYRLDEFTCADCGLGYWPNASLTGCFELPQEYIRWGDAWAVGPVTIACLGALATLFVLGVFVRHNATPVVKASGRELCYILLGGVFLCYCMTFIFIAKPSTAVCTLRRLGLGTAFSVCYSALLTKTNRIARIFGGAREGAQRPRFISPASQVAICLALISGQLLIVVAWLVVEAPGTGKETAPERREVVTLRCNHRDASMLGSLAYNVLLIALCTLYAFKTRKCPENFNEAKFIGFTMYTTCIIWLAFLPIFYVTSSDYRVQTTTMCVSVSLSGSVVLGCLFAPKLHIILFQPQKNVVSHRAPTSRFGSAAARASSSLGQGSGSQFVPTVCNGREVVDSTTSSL
In data set [2] the target is T1, Metabotropic glutamate receptor 2. As to the kind of experiment: Potentiation as percent of maximum glutamate response at 1 mM.
Target sequence in this assay (Q14416 19-872 limits assumed): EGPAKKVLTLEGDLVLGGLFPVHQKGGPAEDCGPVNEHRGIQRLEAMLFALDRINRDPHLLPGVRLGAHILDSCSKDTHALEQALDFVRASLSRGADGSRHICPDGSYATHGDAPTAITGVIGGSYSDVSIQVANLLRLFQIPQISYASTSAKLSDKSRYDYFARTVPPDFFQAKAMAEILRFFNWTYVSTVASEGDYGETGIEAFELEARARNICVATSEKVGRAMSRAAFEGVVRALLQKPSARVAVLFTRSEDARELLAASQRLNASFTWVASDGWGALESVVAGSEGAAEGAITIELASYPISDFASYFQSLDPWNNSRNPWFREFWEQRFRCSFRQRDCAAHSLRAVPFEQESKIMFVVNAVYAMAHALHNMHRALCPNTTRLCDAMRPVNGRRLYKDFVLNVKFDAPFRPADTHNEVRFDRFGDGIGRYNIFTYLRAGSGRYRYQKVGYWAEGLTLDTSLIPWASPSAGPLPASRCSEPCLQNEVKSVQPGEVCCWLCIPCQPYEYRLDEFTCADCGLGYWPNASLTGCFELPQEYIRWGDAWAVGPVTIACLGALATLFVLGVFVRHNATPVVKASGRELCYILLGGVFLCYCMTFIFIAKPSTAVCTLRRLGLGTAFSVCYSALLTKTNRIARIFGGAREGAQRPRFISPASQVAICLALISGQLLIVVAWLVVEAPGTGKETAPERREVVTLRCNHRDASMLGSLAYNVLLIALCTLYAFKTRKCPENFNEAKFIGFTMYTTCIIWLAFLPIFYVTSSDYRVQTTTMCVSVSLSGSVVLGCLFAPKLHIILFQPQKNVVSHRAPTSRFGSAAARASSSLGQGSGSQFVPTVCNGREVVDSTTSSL
A short description of data set [3]: Ratio of brain to plasma levels was determined upon administration at 20 mpk intraperitoneally after 2 h. It counts as ADME. The following applies: rat, brain and plasma, ip, 20 mg/kg.
Data set [4] is described as follows: Compound level in rat brain was determined upon administration at 2 mpk iv or 10 mpk po. It counts as ADME, organism-based. The following applies: in vivo, read-out: Concentration in Brain.
Data set [5] in a line: Total clearance in rat plasma upon administration at 2 mpk iv or 10 mpk po. It counts as ADME, organism-based. The following applies: 2 mg/kg.
The nature of data set [6]: Bioavailability in rat (dose 2 mg/kg i.v. and 10 mg/kg p.o.). It counts as ADME, organism-based. The conditions noted are these: in vivo, po.
For data set [7], the target named is T1, Metabotropic glutamate receptor 2. The experiment in a line: Binding affinity for human metabotropic glutamate receptor 2 in [35S]GTP gamma S binding assay; not active at < 10 uM. It counts as functional.
Target sequence in this assay (Q14416 whole entry): as the sequence (Q14416 whole entry) above

Some results are limits rather than exact numbers.

As for `Cc1c(OCc2cccc(CSc3ccncc3)c2)ccc(C(=O)CC(C)C)c1O`, in data set [1], the half-maximal effective concentration (EC50) (as a rule, the concentration that produces a half-maximal response) is 819 nM. Also, the Potentiation in data set [2] is 68%. For the same compound, the Kp (commonly tissue or fluid exposure divided by exposure in the circulation) at 2 h in data set [3] was 1.2. Besides, the concentration in data set [4] worked out at 330 nM.

In data set [1], `Cc1c(OCCCCOc2cccnc2)ccc(C(=O)CC(C)C)c1O` had an EC50 of 1720 nM. In addition, the Potentiation in data set [2] was 46%.

In data set [1], `Cc1c(OCc2ccc(Sc3ccncc3)cc2)ccc(C(=O)CC(C)C)c1O` showed an EC50 of 1060 nM. Moreover, the Potentiation in data set [2] came out at 38%.

In data set [5], `CCCc1c(OCCCCOc2ccc(-c3nnn[nH]3)cc2)ccc(C(C)=O)c1O` yielded a clearance of 33 mL/min/kg. For the same compound, in data set [3], the Kp at 2 h was 0.01. In addition, the bioavailability – broadly, dose-corrected exposure relative to a reference, in per cent – in data set [6] was found to be 63%.

As for `CC(C)CC(=O)c1ccc(OCCCCSc2ccncc2)c(Br)c1O`, it took 676 nM to reach a half-maximal effect in data set [1] (EC50). Besides, the Potentiation in data set [2] worked out at 82%.

Take `Cc1c(OCCCCOc2ccc(-n3cncn3)cc2)ccc(C(=O)CC(C)C)c1O`: the EC50 in data set [1] was found to be 4240 nM. Moreover, the Potentiation in data set [2] worked out at 18%.

In data set [1], `Cc1c(OCCCCOc2ccccc2)ccc(C(=O)CC(C)C)c1O` returned an EC50 of 4550 nM. The Potentiation in data set [2] turned out to be 24%.

In data set [1], `Cc1c(OCCCCSc2ccccn2)ccc(C(=O)CC(C)C)c1O` came in with an EC50 of 1530 nM. The Potentiation in data set [2] worked out at 21%.

As for `Cc1c(OCCCCOc2ccccn2)ccc(C(=O)CC(C)C)c1O`, in data set [1], a half-maximal response (EC50) required 3270 nM. In data set [2], the Potentiation was 33%.

Compound `Cc1c(OCc2ccc(CSc3ccncc3)cc2)ccc(C(=O)CC(C)C)c1O` registered an EC50 in data set [1] of 770 nM. For the same compound, the Potentiation in data set [2] is 78%.

Take `Cc1c(OCCCSc2ccncc2)ccc(C(=O)CC(C)C)c1O`: in data set [7], the EC50 entry is given as “Not Active”.

`CC(C)CC(=O)c1ccc(OCCCCOc2cccc(F)c2F)c(Br)c1O` gave an EC50 in data set [1] of 558 nM. Besides, the clearance in data set [5] worked out at 75 mL/min/kg. In data set [2], the Potentiation stood at 88%. The bioavailability in data set [6] is 0%.

For `Cc1c(OCCCCOc2ccccc2F)ccc(C(=O)CC(C)C)c1O`, in data set [1], the 50% effective concentration (EC50) amounted to 1990 nM. Moreover, the Potentiation in data set [2] is 30%.

As for `Cc1c(OCCCCOc2ccc(-c3nn[nH]n3)cc2)ccc(C(=O)CC(C)C)c1O`, the clearance in data set [5] stood at 15 mL/min/kg. Further, the Kp at 2 h in data set [3] amounted to 0.03. In data set [6], this compound yielded a bioavailability of 59%.

`Cc1c(OCc2ccc(Sc3ccncc3)cc2)ccc(C(=O)CC(C)(C)C)c1O`: the EC50 in data set [1] is 578 nM. For the same compound, the Potentiation in data set [2] is 79%. The Kp at 2 h in data set [3] is 0.21. In addition, the concentration in data set [4] was determined as 340 nM.

In turn, `CC(C)CC(=O)c1ccc(OCCCCOc2ccccc2)c(Br)c1O` displayed an EC50 in data set [1] of 1500 nM. For the same compound, the Potentiation in data set [2] is 53%.

As to `Cc1c(OCCCCSc2ccncc2)ccc(C(=O)CC(C)C)c1O`, the half-maximal effective concentration (EC50) in data set [1] is 340 nM. In data set [5], this compound displayed a clearance of 33 mL/min/kg. Moreover, the Potentiation in data set [2] is 33%. The Kp at 2 h in data set [3] stood at 1.1. The bioavailability in data set [6] came to 3%. For the same compound, in data set [4], the concentration amounted to 400 nM.

`Cc1c(OCc2ccccc2Sc2ccncc2)ccc(C(=O)CC(C)C)c1O` came in with an EC50 in data set [1] of 677 nM. Besides, the Potentiation in data set [2] turned out to be 38%.

In data set [5], `COc1ccccc1Oc1ccc(N(Cc2cccnc2)S(=O)(=O)CC(F)(F)F)cc1` showed a clearance of 70 mL/min/kg. The Kp at 2 h in data set [3] was determined as 0.15. In data set [6], this compound returned a bioavailability below 1%. For the same compound, the concentration in data set [4] is 10 nM.

Turning to `Cc1c(OCCCCCSc2ccncc2)ccc(C(=O)CC(C)C)c1O`, the EC50 entry in data set [7] is reported as “Not Active”.

As for `Cc1c(OCCCCOc2ccncc2)ccc(C(=O)CC(C)C)c1O`, the 50% effective concentration (EC50) in data set [1] was determined as 3850 nM. For the same compound, the Potentiation in data set [2] is 40%.

In turn, `CC(C)CC(=O)c1ccc(OCCCCOc2cccnc2)c(Br)c1O` had an EC50 in data set [1] of 575 nM. Besides, the Potentiation in data set [2] worked out at 67%.

For `Cc1c(OCCCCSc2cccnc2)ccc(C(=O)CC(C)C)c1O`, the EC50 in data set [1] is 1090 nM. In addition, the Potentiation in data set [2] worked out at 26%.

For `Cc1c(OCCCCOc2cccc(F)c2F)ccc(C(=O)CC(C)C)c1O`, the concentration for a half-maximal effect (EC50) in data set [1] was found to be 384 nM. Besides, the Potentiation in data set [2] was 18%.

Regarding `Cc1c(OCc2cccc(Sc3ccncc3)c2)ccc(C(=O)CC(C)C)c1O`, the EC50 in data set [1] came out at 890 nM. For the same compound, the Potentiation in data set [2] was determined as 58%.
